According to patent publication US20100298141A1, “SUBSTITUTED PYRIDINE N-OXIDE HERBICIDES” (E. I. DU PONT DE NEMOURS AND COMPANY, priority 2007, published 2010):

Columns and labels:
common groundsel = assay: Test F preemergence test; type: in vivo, Senecio vulgaris; details: scale 0 to 100
In short: (§1)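 Compounds in a non-phytotoxic solvent formulation with surfactant were applied before emergence after sowing, or, for sugarcane, also postemergence. Evaluation was visual, against controls, after 14 to 21 greenhouse days.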

annual bluegrass = assay: Test F preemergence test; type: in vivo, Poa annua; details: scale 0 to 100
In short: as §1

pitted morningglory = assay: Test F preemergence test; type: in vivo, Ipomoea lacunosa; details: scale 0 to 100
In short: as §1

winter barley = assay: Test C postemergence test; type: in vivo, Hordeum vulgare; details: for Plant response rating, Barley: scale 0 to 100, 0 no effect, 100 complete control
In short: (§2)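 Postemergence sprays of formulated test chemicals on plants 2 to 18 cm tall (1- to 4-leaf stage). Greenhouse hold for 13 to 15 days, then visual rating of each species against untreated controls; dash means no test result.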

itchgrass = assay: Test F preemergence test; type: in vivo, Rottboellia cochinchinensis; details: scale 0 to 100
In short: as §1

spanishneedles = assay: Test F preemergence test; type: in vivo, Bidens bipinnata; details: scale 0 to 100
In short: as §1

field bindweed = assay: Test F preemergence test; type: in vivo, Convolvulus arvensis; details: scale 0 to 100
In short: as §1

prickly sida = assay: Test F preemergence test; type: in vivo, Sida spinosa; details: scale 0 to 100
In short: as §1

guineagrass = assay: Test F preemergence test; type: in vivo, Panicum maximum; details: scale 0 to 100
In short: as §1

Canada horseweed = assay: Test F preemergence test; type: in vivo, Conyza canadensis; details: scale 0 to 100
In short: as §1

johnsongrass = assay: Test F preemergence test; type: in vivo, Sorghum halepense; details: scale 0 to 100
In short: as §1

common purslane = assay: Test F preemergence test; type: in vivo, Portulaca oleracea; details: scale 0 to 100
In short: as §1

Virginia dayflower = assay: Test F preemergence test; type: in vivo, Commelina virginica; details: 16 g ai/ha, preemergence; scale 0 to 100
In short: as §1

common mallow = assay: Test F preemergence test; type: in vivo, Malva sylvestris; details: scale 0 to 100
In short: as §1

green foxtail = assay: Test F preemergence test; type: in vivo, Setaria viridis; details: scale 0 to 100
In short: as §1

naked crabgrass = assay: Test F preemergence test; type: in vivo, Digitaria nuda; details: scale 0 to 100
In short: as §1

chickweed = assay: Test C postemergence test; type: in vivo, Stellaria media; details: for Plant response rating, Chickweed: scale 0 to 100, 0 no effect, 100 complete control
In short: as §2

dallisgrass = assay: Test F preemergence test; type: in vivo, Paspalum dilatatum; details: scale 0 to 100
In short: as §1

common sowthistle = assay: Test F preemergence test; type: in vivo, Sonchus oleraceous; details: scale 0 to 100
In short: as §1

Cn1nc(C(F)(F)F)c(C[S+]([O-])c2ccc(F)c[n+]2[O-])c1OCC(F)(F)F (stereo not shown) [Compound 67]
Plant response rating, Groundsel (common groundsel; 16 g ai/ha, preemergence): 0
Groundsel plant response rating (common groundsel; 62 g ai/ha, Preemergence): 80
Groundsel plant response rating (common groundsel; 125 g ai/ha, preemergence): 98
Plant response rating, Groundsel (common groundsel; Preemergence, 31 g ai/ha): 25
Plant response rating, Bluegrass (annual bluegrass; 16 g ai/ha, preemergence): 0
Bluegrass plant response rating (annual bluegrass; 62 g ai/ha, Preemergence): 80
Bluegrass plant response rating (annual bluegrass; 125 g ai/ha, preemergence): 100
Plant response rating, Bluegrass (annual bluegrass; Preemergence, 31 g ai/ha): 0
Plant response rating, Morningglory (pitted morningglory; 16 g ai/ha, preemergence): 40
Morningglory plant response rating (pitted morningglory; 62 g ai/ha, Preemergence): 70
Morningglory plant response rating (pitted morningglory; 125 g ai/ha, preemergence): 90
Plant response rating, Morningglory (pitted morningglory; Preemergence, 31 g ai/ha): 70
Plant response rating (0 to 100), Barley (winter barley; 31 g ai/ha): 0
Plant response rating, Barley (winter barley; 62 g ai/ha): 10
Plant response rating, Barley (winter barley; 125 g ai/ha): 50
Plant response rating, Barley (winter barley; 250 g ai/ha): 50
Plant response rating, Itchgrass (itchgrass; 16 g ai/ha, preemergence): 15
Itchgrass plant response rating (itchgrass; 62 g ai/ha, Preemergence): 65
Itchgrass plant response rating (itchgrass; 125 g ai/ha, preemergence): 100
Plant response rating, Itchgrass (itchgrass; Preemergence, 31 g ai/ha): 25
Plant response rating, Spanishneedles (spanishneedles; 16 g ai/ha, preemergence): 0
Spanishneedles plant response rating (spanishneedles; 125 g ai/ha, preemergence): 98
Plant response rating, Spanishneedles (spanishneedles; Preemergence, 62 g ai/ha): 90
Plant response rating, Spanishneedles (spanishneedles; Preemergence, 31 g ai/ha): 65
Plant response rating, Field Bindweed (field bindweed; 16 g ai/ha, preemergence): 0
Field Bindweed plant response rating (field bindweed; 62 g ai/ha, Preemergence): 35
Field Bindweed plant response rating (field bindweed; 125 g ai/ha, preemergence): 80
Plant response rating, Field Bindweed (field bindweed; Preemergence, 31 g ai/ha): 10
Plant response rating, Prickly Sida (prickly sida; 16 g ai/ha, preemergence): 0
Prickly Sida plant response rating (prickly sida; 62 g ai/ha, Preemergence): 90
Prickly Sida plant response rating (prickly sida; 125 g ai/ha, preemergence): 98
Plant response rating, Prickly Sida (prickly sida; Preemergence, 31 g ai/ha): 65
Plant response rating, Guineagrass (guineagrass; 16 g ai/ha, preemergence): 0
Guineagrass plant response rating (guineagrass; 62 g ai/ha, Preemergence): 100
Guineagrass plant response rating (guineagrass; 125 g ai/ha, preemergence): 100
Plant response rating, Guineagrass (guineagrass; Preemergence, 31 g ai/ha): 95
Plant response rating, Horseweed (Canada horseweed; 16 g ai/ha, preemergence): 0
Horseweed plant response rating (Canada horseweed; 62 g ai/ha, Preemergence): 100
Horseweed plant response rating (Canada horseweed; 125 g ai/ha, preemergence): 100
Plant response rating, Horseweed (Canada horseweed; Preemergence, 31 g ai/ha): 0
Plant response rating, Johnsongrass (johnsongrass; 16 g ai/ha, preemergence): 35
Johnsongrass plant response rating (johnsongrass; 62 g ai/ha, Preemergence): 75
Johnsongrass plant response rating (johnsongrass; 125 g ai/ha, preemergence): 95
Plant response rating, Johnsongrass (johnsongrass; Preemergence, 31 g ai/ha): 75
Plant response rating, Purslane (common purslane; 16 g ai/ha, preemergence): 0
Purslane plant response rating (common purslane; 62 g ai/ha, Preemergence): 95
Purslane plant response rating (common purslane; 125 g ai/ha, preemergence): 100
Plant response rating, Purslane (common purslane; Preemergence, 31 g ai/ha): 0
Plant response rating, Dayflower (Virginia dayflower): 50
Plant response rating, Mallow (common mallow; 16 g ai/ha, preemergence): 0
Mallow plant response rating (common mallow; 62 g ai/ha, Preemergence): 100
Mallow plant response rating (common mallow; 125 g ai/ha, preemergence): 100
Plant response rating, Mallow (common mallow; Preemergence, 31 g ai/ha): 15
Plant response rating, Foxtail, Green (green foxtail; 16 g ai/ha, preemergence): 40
Foxtail, Green plant response rating (green foxtail; 62 g ai/ha, Preemergence): 80
Foxtail, Green plant response rating (green foxtail; 125 g ai/ha, preemergence): 100
Plant response rating, Foxtail, Green (green foxtail; Preemergence, 31 g ai/ha): 60
Plant response rating, Crabgrass, Naked (naked crabgrass; 16 g ai/ha, preemergence): 60
Crabgrass, Naked plant response rating (naked crabgrass; 62 g ai/ha, Preemergence): 100
Crabgrass, Naked plant response rating (naked crabgrass; 125 g ai/ha, preemergence): 100
Plant response rating, Crabgrass, Naked (naked crabgrass; Preemergence, 31 g ai/ha): 70
Plant response rating (0 to 100), Chickweed (chickweed; 31 g ai/ha): 0
Plant response rating, Chickweed (chickweed; 62 g ai/ha): 60
Plant response rating, Chickweed (chickweed; 125 g ai/ha): 70
Plant response rating, Chickweed (chickweed; 250 g ai/ha): 95
Plant response rating, Dallisgrass (dallisgrass; 16 g ai/ha, preemergence): 0
Dallisgrass plant response rating (dallisgrass; 62 g ai/ha, Preemergence): 95
Dallisgrass plant response rating (dallisgrass; 125 g ai/ha, preemergence): 100
Plant response rating, Dallisgrass (dallisgrass; Preemergence, 31 g ai/ha): 40
Plant response rating, Sowthistle (common sowthistle; 16 g ai/ha, preemergence): 80
Sowthistle plant response rating (common sowthistle; 125 g ai/ha, preemergence): 100
Plant response rating, Sowthistle (common sowthistle; Preemergence, 62 g ai/ha): 100
Plant response rating, Sowthistle (common sowthistle; Preemergence, 31 g ai/ha): 80
